pIC50: −log10 of the molar value. Starred links: 1 amine or outer side, 2 acyl side, 3 side chain; linkers in the order of their positions; H or OH if unused. Non-standard residues stand in square brackets, D forms with d. Residues, ends and D or L forms follow the SMILES beside them. Phe(4-(trans-4-COOH-cHex)) = N[C@@H](Cc1ccc([C@H]2CC[C@H](C(=O)O)CC2)cc1)C(=O)O; Phe(4-(cis-4-COOH-cHex)) = N[C@@H](Cc1ccc([C@H]2CC[C@@H](C(=O)O)CC2)cc1)C(=O)O; Phe(4-(5-CO2H-2-pyrimidyl)) = N[C@@H](Cc1ccc(-c2ncc(C(=O)O)cn2)cc1)C(=O)O; Phe(4-(4-Ac-piperazinyl)) = CC(=O)N1CCN(c2ccc(C[C@H](N)C(=O)O)cc2)CC1; dPro(4R-(4-pyridylmethyl)) = O=C(O)[C@H]1C[C@@H](Cc2ccncc2)CN1; Trp(βS-Me,4-F) = C[C@@H](c1c[nH]c2cccc(F)c12)[C@H](N)C(=O)O; 3Aminoazetidine3carboxyl = O=C(C1(N[*:1])CN([*:3])C1)[*:2]; Bip(4'-COOH) = N[C@@H](Cc1ccc(-c2ccc(C(=O)O)cc2)cc1)C(=O)O; Ala(1-bicyclo(1.1.1)pentyl) = N[C@@H](CC12CC(C1)C2)C(=O)O; dPro(4R-Bzl(4-F)) = O=C(O)[C@H]1C[C@@H](Cc2ccc(F)cc2)CN1; Phe(2-Cl,4-COOH) = N[C@@H](Cc1ccc(C(=O)O)cc1Cl)C(=O)O; 1Nal(3S-Me) = C[C@@H](c1cccc2ccccc12)[C@H](N)C(=O)O; X4 = O=C([C@H]1[C@@H](Cc2ccncc2)CCN1[*:1])[*:2]; Ala(pyrimidin-5-yl) = N[C@@H](Cc1cncnc1)C(=O)O; Phe(4-COOH) = N[C@@H](Cc1ccc(C(=O)O)cc1)C(=O)O; Pro(cis-4-F) = O=C(O)[C@@H]1C[C@H](F)CN1; Ala(4-THP) = N[C@@H](CC1CCOCC1)C(=O)O; Dap(CONH2) = NC(=O)NC[C@H](N)C(=O)O; cisHyp = O=C(O)[C@@H]1C[C@H](O)CN1; d(αMeD) = C[C@@](N)(CC(=O)O)C(=O)O; aIle = CC[C@@H](C)[C@H](N)C(=O)O; 4Pal = N[C@@H](Cc1ccncc1)C(=O)O; aThr = C[C@H](O)[C@H](N)C(=O)O; αMeD = C[C@](N)(CC(=O)O)C(=O)O; αMeK = C[C@](N)(CCCCN)C(=O)O; Api = NC1(C(=O)O)CCNCC1; Dab = NCC[C@H](N)C(=O)O; Aib = CC(C)(N)C(=O)O; Sar = CNCC(=O)O
Biological target: T1, IL-1β (Homo sapiens, UniProt P01584)
T1 construct: purchased BioLegend 579404
Experiment: IL-6 assay in MRC5 cells: inhibition of IL-1β induced IL-6 secretion (AlphaLISA)
Assay type: cell-based
Conditions: inhibition of IL-1β induced IL-6 secretion in MRC5 cells; compound pre-incubated 1 hour with recombinant human IL-1β; read-out: MRC5 IC50
Procedure, shortened: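 Compound was pre-incubated 1 h at ambient temperature with recombinant human IL-1β at 2λ EC80 before adding human lung fibroblast MRC5 cells (3000/well) in EMEM with 0.025% BSA. After overnight culture at 37 °C, 5% CO2, secreted IL-6 in conditioned medium was measured by AlphaLISA; IC50 from 4-parameter logistic fits.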

T1 sequence (P01584 117-269): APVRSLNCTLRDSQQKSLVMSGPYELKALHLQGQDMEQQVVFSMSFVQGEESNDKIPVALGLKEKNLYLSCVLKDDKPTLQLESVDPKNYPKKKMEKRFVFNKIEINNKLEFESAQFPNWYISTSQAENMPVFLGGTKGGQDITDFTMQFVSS

| pIC50 | SMILES |
| --- | --- |
| 10.66 | C[C@@H](c1c[nH]c2cccc(F)c12)[C@@H]1NC(=O)[C@@H]2C[C@H](F)CN2C(=O)CNC(=O)[C@H](Cc2ccc(C(=O)O)cc2)NC(=O)[C@H](Cc2ccncc2)NC(=O)[C@H](Cc2ccc(-c3ccc(C(=O)O)cc3)cc2)NC(=O)[C@H]2[C@@H](Cc3ccncc3)CCN2C(=O)CNC(=O)[C@H](CNC(N)=O)NC(=O)[C@H](CCC(N)=O)NC(=O)[C@H](Cc2cncnc2)NC(=O)[C@@](C)(CC(=O)O)NC(=O)[C@H](Cc2c[nH]c3ccccc23)NC(=O)[C@H](CO)NC(=O)C(C)(C)NC1=O [Example 230] (cyclo([Bip(4'-COOH)][4Pal][Phe(4-COOH)]G[Pro(cis-4-F)][Trp(βS-Me,4-F)][Aib]SW[d(αMeD)][Ala(pyrimidin-5-yl)]Q[Dap(CONH2)]G[X4])) |

Same assay, conditions: inhibition of IL-1β induced IL-6 secretion in MRC5 cells; read-out: MRC5 IC50

| pIC50 | SMILES |
| --- | --- |
| 10.72 | C[C@@H](c1cccc2ccccc12)[C@@H]1NC(=O)[C@@H]2C[C@H](F)CN2C(=O)CNC(=O)[C@H](Cc2ccc(C(=O)O)cc2Cl)NC(=O)[C@H](Cc2ccncc2)NC(=O)[C@H](Cc2ccc(-c3ncc(C(=O)O)cn3)cc2)NC(=O)[C@H]2C[C@@H](Cc3ccncc3)CN2C(=O)CNC(=O)[C@H](CCN)NC(=O)[C@H](CCC(N)=O)NC(=O)[C@H](CC2CCOCC2)NC(=O)[C@@](C)(CC(=O)O)NC(=O)[C@H](Cc2c[nH]c3ccccc23)NC(=O)[C@H](CO)NC(=O)C(C)(C)NC1=O [Example 360] (cyclo([Phe(4-(5-CO2H-2-pyrimidyl))][4Pal][Phe(2-Cl,4-COOH)]G[Pro(cis-4-F)][1Nal(3S-Me)][Aib]SW[d(αMeD)][Ala(4-THP)]Q[Dab]G[dPro(4R-(4-pyridylmethyl))])) |
| 10.08 | C[C@@H](c1c[nH]c2cccc(F)c12)[C@@H]1NC(=O)[C@@H]2C[C@H](F)CN2C(=O)CNC(=O)[C@H](Cc2ccc(C(=O)O)cc2)NC(=O)[C@H](CC23CC(C2)C3)NC(=O)[C@H](Cc2ccc([C@H]3CC[C@@H](C(=O)O)CC3)cc2)NC(=O)[C@H]2C[C@@H](Cc3ccc(F)cc3)CN2C(=O)CNC(=O)[C@H](CCN)NC(=O)[C@H](CCC(N)=O)NC(=O)[C@H](CO)NC(=O)C2(CCNCC2)NC(=O)[C@H](Cc2c[nH]c3ccccc23)NC(=O)[C@H](CCC(=O)O)NC(=O)C(C)(C)NC1=O [Example 105] (cyclo([Phe(4-(cis-4-COOH-cHex))][Ala(1-bicyclo(1.1.1)pentyl)][Phe(4-COOH)]G[Pro(cis-4-F)][Trp(βS-Me,4-F)][Aib]EW[Api]SQ[Dab]G[dPro(4R-Bzl(4-F))])) |
| 10.68 | CC(=O)N1CCN(c2ccc(C[C@@H]3NC(=O)[C@H]4C[C@@H](Cc5ccncc5)CN4C(=O)CNC(=O)[C@H](CCN)NC(=O)[C@H](CCC(N)=O)NC(=O)[C@H](Cc4cncnc4)NC(=O)C(C)(C)NC(=O)[C@H](Cc4c[nH]c5ccccc45)NC(=O)[C@H](CO)NC(=O)C(C)(C)NC(=O)[C@H]([C@@H](C)c4c[nH]c5cccc(F)c45)NC(=O)[C@@H]4C[C@H](F)CN4C(=O)CNC(=O)[C@H](Cc4ccc(C(=O)O)cc4)NC(=O)[C@H](Cc4ccncc4)NC3=O)cc2)CC1 [Example 366] (cyclo([Phe(4-(4-Ac-piperazinyl))][4Pal][Phe(4-COOH)]G[Pro(cis-4-F)][Trp(βS-Me,4-F)][Aib]SW[Aib][Ala(pyrimidin-5-yl)]Q[Dab]G[dPro(4R-(4-pyridylmethyl))])) |
| 10.46 | C[C@@H](c1c[nH]c2cccc(F)c12)[C@@H]1NC(=O)[C@@H]2C[C@H](F)CN2C(=O)CNC(=O)[C@H](Cc2ccc(C(=O)O)cc2)NC(=O)[C@H](Cc2ccncc2)NC(=O)[C@H](Cc2ccc(-c3ccc(C(=O)O)cc3)cc2)NC(=O)[C@H]2C[C@@H](Cc3ccncc3)CN2C(=O)CNC(=O)[C@H](CCN)NC(=O)[C@H](CCC(N)=O)NC(=O)[C@H](Cc2ccncc2)NC(=O)C(C)(C)NC(=O)[C@H](Cc2c[nH]c3ccccc23)NC(=O)[C@H](CCC(=O)O)NC(=O)C(C)(C)NC1=O [Example 15] (cyclo([Bip(4'-COOH)][4Pal][Phe(4-COOH)]G[Pro(cis-4-F)][Trp(βS-Me,4-F)][Aib]EW[Aib][4Pal]Q[Dab]G[dPro(4R-(4-pyridylmethyl))])) |
| 10.55 | C[C@@H](c1c[nH]c2cccc(F)c12)[C@@H]1NC(=O)[C@@H]2C[C@H](F)CN2C(=O)CNC(=O)[C@H](Cc2ccc(C(=O)O)cc2)NC(=O)[C@H](Cc2ccncc2)NC(=O)[C@H](Cc2ccc(-c3ccc(C(=O)O)cc3)cc2)NC(=O)[C@H]2C[C@@H](Cc3ccncc3)CN2C(=O)CN(C)C(=O)[C@H](CCN)NC(=O)[C@H](CCC(N)=O)NC(=O)[C@H](Cc2cncnc2)NC(=O)C(C)(C)NC(=O)[C@H](Cc2c[nH]c3ccccc23)NC(=O)[C@H](CO)NC(=O)C(C)(C)NC1=O [Example 205] (cyclo([Bip(4'-COOH)][4Pal][Phe(4-COOH)]G[Pro(cis-4-F)][Trp(βS-Me,4-F)][Aib]SW[Aib][Ala(pyrimidin-5-yl)]Q[Dab][Sar][dPro(4R-(4-pyridylmethyl))])) |
| 10.51 | C[C@@H](c1c[nH]c2cccc(F)c12)[C@@H]1NC(=O)[C@@H]2C[C@H](F)CN2C(=O)CNC(=O)[C@H](Cc2ccc(C(=O)O)cc2)NC(=O)[C@H](Cc2ccncc2)NC(=O)[C@H](Cc2ccc(-c3ccc(C(=O)O)cc3)cc2)NC(=O)[C@H]2C[C@@H](Cc3ccc(F)cc3)CN2C(=O)CNC(=O)[C@H](CCN)NC(=O)[C@H](CCC(N)=O)NC(=O)[C@H](Cc2cncnc2)NC(=O)C(C)(C)NC(=O)[C@H](Cc2c[nH]c3ccccc23)NC(=O)[C@H](CCC(=O)O)NC(=O)C(C)(C)NC1=O [Example 4] (cyclo([Bip(4'-COOH)][4Pal][Phe(4-COOH)]G[Pro(cis-4-F)][Trp(βS-Me,4-F)][Aib]EW[Aib][Ala(pyrimidin-5-yl)]Q[Dab]G[dPro(4R-Bzl(4-F))])) |
| 10.57 | CC[C@@H](C)[C@@H]1NC(=O)C(C)(C)NC(=O)[C@H]([C@@H](C)c2c[nH]c3cccc(F)c23)NC(=O)[C@@H]2C[C@H](F)CN2C(=O)CNC(=O)[C@H](Cc2ccc(C(=O)O)cc2)NC(=O)[C@H](Cc2ccncc2)NC(=O)[C@H](Cc2ccc(-c3ccc(C(=O)O)cc3)cc2)NC(=O)[C@H]2C[C@@H](Cc3ccc(F)cc3)CN2C(=O)CNC(=O)[C@H](CCN)NC(=O)[C@H](CCC(N)=O)NC(=O)[C@H](Cc2cncnc2)NC(=O)[C@](C)(CCCCN)NC(=O)[C@H](Cc2c[nH]c3ccccc23)NC1=O [Example 136] (cyclo([Bip(4'-COOH)][4Pal][Phe(4-COOH)]G[Pro(cis-4-F)][Trp(βS-Me,4-F)][Aib][aIle]W[αMeK][Ala(pyrimidin-5-yl)]Q[Dab]G[dPro(4R-Bzl(4-F))])) |
| 10.66 | C[C@H](O)[C@@H]1NC(=O)[C@@](C)(CC(=O)O)NC(=O)[C@H](Cc2c[nH]c3ccccc23)NC(=O)[C@H](CO)NC(=O)C(C)(C)NC(=O)[C@H]([C@@H](C)c2c[nH]c3cccc(F)c23)NC(=O)[C@@H]2C[C@H](F)CN2C(=O)CNC(=O)[C@H](Cc2ccc(C(=O)O)cc2)NC(=O)[C@H](CC23CC(C2)C3)NC(=O)[C@H](Cc2ccc([C@H]3CC[C@@H](C(=O)O)CC3)cc2)NC(=O)[C@H]2C[C@@H](Cc3ccncc3)CN2C(=O)CNC(=O)[C@H](CCN)NC(=O)[C@H](CCC(N)=O)NC1=O [Example 334] (cyclo([Phe(4-(cis-4-COOH-cHex))][Ala(1-bicyclo(1.1.1)pentyl)][Phe(4-COOH)]G[Pro(cis-4-F)][Trp(βS-Me,4-F)][Aib]SW[d(αMeD)][aThr]Q[Dab]G[dPro(4R-(4-pyridylmethyl))])) |
| 10.47 | C[C@@H](c1c[nH]c2cccc(F)c12)[C@@H]1NC(=O)[C@@H]2C[C@H](O)CN2C(=O)CNC(=O)[C@H](Cc2ccc(C(=O)O)cc2)NC(=O)[C@H](Cc2ccncc2)NC(=O)[C@H](Cc2ccc(-c3ccc(C(=O)O)cc3)cc2)NC(=O)[C@H]2C[C@@H](Cc3ccncc3)CN2C(=O)CN(C)C(=O)[C@H](CCN)NC(=O)[C@H](CCC(N)=O)NC(=O)[C@H](Cc2cncnc2)NC(=O)[C@](C)(CC(=O)O)NC(=O)[C@H](Cc2c[nH]c3ccccc23)NC(=O)[C@H](CO)NC(=O)C(C)(C)NC1=O [Example 209] (cyclo([Bip(4'-COOH)][4Pal][Phe(4-COOH)]G[cisHyp][Trp(βS-Me,4-F)][Aib]SW[αMeD][Ala(pyrimidin-5-yl)]Q[Dab][Sar][dPro(4R-(4-pyridylmethyl))])) |
| 10.54 | C[C@@H](c1c[nH]c2cccc(F)c12)[C@@H]1NC(=O)[C@@H]2C[C@H](F)CN2C(=O)CNC(=O)[C@H](Cc2ccc(C(=O)O)cc2)NC(=O)[C@H](Cc2ccncc2)NC(=O)[C@H](Cc2ccc([C@H]3CC[C@H](C(=O)O)CC3)cc2)NC(=O)[C@H]2C[C@@H](Cc3ccc(F)cc3)CN2C(=O)CNC(=O)[C@H](CCN)NC(=O)[C@H](CCC(N)=O)NC(=O)[C@H](Cc2cncnc2)NC(=O)C2(CNC2)NC(=O)[C@H](Cc2c[nH]c3ccccc23)NC(=O)[C@H](CCC(=O)O)NC(=O)C(C)(C)NC1=O [Example 68] (cyclo([Phe(4-(trans-4-COOH-cHex))][4Pal][Phe(4-COOH)]G[Pro(cis-4-F)][Trp(βS-Me,4-F)][Aib]EW[3Aminoazetidine3carboxyl][Ala(pyrimidin-5-yl)]Q[Dab]G[dPro(4R-Bzl(4-F))])) |
| 10.89 | C[C@@H](c1c[nH]c2cccc(F)c12)[C@@H]1NC(=O)[C@@H]2C[C@H](O)CN2C(=O)CNC(=O)[C@H](Cc2ccc(C(=O)O)cc2)NC(=O)[C@H](Cc2ccncc2)NC(=O)[C@H](Cc2ccc(-c3ccc(C(=O)O)cc3)cc2)NC(=O)[C@H]2C[C@@H](Cc3ccc(F)cc3)CN2C(=O)CNC(=O)[C@H](CCN)NC(=O)[C@H](CCC(N)=O)NC(=O)[C@H](Cc2cncnc2)NC(=O)C(C)(C)NC(=O)[C@H](Cc2c[nH]c3ccccc23)NC(=O)[C@H](CO)NC(=O)C(C)(C)NC1=O [Example 127] (cyclo([Bip(4'-COOH)][4Pal][Phe(4-COOH)]G[cisHyp][Trp(βS-Me,4-F)][Aib]SW[Aib][Ala(pyrimidin-5-yl)]Q[Dab]G[dPro(4R-Bzl(4-F))])) |
